Tested on: ischemia-induced retinal neovascularization
Assay: Mouse model of retinopathy of prematurity (ROP), ischemia-induced retinal neovascularization
Assay type: in vivo, C57Bl/6 mice
Conditions: for Activity At Dose Tested: intravitreal 20 micrograms, P17; for Mean % Reduction of Retinal Neovascularization In ROP Model: intravitreal injection of 1.0 microliters containing 20 micrograms of Test Compound at P12, neovascular area at P17 (Taurine solutions 3.0 mg/100 μL)
Experimental: Each test compound was prepared in sterile water for injection, containing 0.08 mg/100 μL of sodium chloride and 0.005 mg/100 μL of trisodium citrate, the concentration of the peptide was at a concentration of […] and pH=2.7 and dispensed by sterile filtration into sterile vials. The Taurine test compound was obtained from Sigma Aldrich company, which was >99% pure, and prepared the same way as mentioned previously, having a concentration of 3.0 mg/100 μL. The R-G-Cys(acid) at 2.0 mg/100 μL+Taurine at 3.0 mg/100 μL were prepared the same way as mentioned above
To screen the test compounds for activity against ischemia-induced retinal neovascularization, the well-established model of retinopathy of prematurity (ROP) in mice was used. Litters of C57Bl/6 mice were placed in 75% oxygen at postnatal day (P) 7, returned to room air at day (P) 12. The Pups were randomly assigned to treatment groups of 4 to 10 animals per group. The pups were treated as follows: Treatment eyes were treated by intravitreal injection of 1.0 microliters of solution containing 20 micrograms of Test Compound.
On post-natal day 17, 5 days after intravitreal injection, the animals were sacrificed, the retinas were flat mounted and the area of neovascularization in each retina was determined by Fluorescein-dextran image analysis.
Applicant has identified the tripeptide R-G-Cysteic(Acid) as an integrin binding motif of the oligopeptide Glycinyl-Arginyl-Glycinyl-Cysteic(Acid)-Threonyl-Proline (ALG-1001 or Luminate®, Allegro Ophthalmics, LLC). The trifluoroacetate (TFA) and acetate salts of the R-G-Cysteic(Acid) tripeptide (Test Compound Nos. 1 and 2) were tested in both the ROP Mouse Model as described above as well as in a mouse model of choroidal neovascularization induced by laser photocoagulation (“CNV Mouse Model”), as generally as described in Lambert, V., et al., Laser-Induced Choroidal Neovascarization Model to Study Age Related Macular Degeneration in Mice, Nature Protocols, 8; 2197-2211 (2013). […] In some of the experiments, an additional “Positive Control” group was included.
The following Table 1 summarizes the neovascularization inhibiting effect of each Test Compound at the dose tested. In each instance, the data was obtained using the ROP Mouse Model, except for the two table entries specifically labeled “CNV”. Only those table entries labeled “CNV” show data obtained from the CNV Mouse Model. Bar graphs showing the test results summarized in Table 1 are also provided herewith as FIGS. 1 through 27.

Compound	Activity At Dose Tested	Mean % Reduction of Retinal Neovascularization In ROP Model
NCCS(=O)(=O)O [Test Compound 25, Taurine, reference compound]	Slightly Active	33%
Cyclo-{R-G-Cys(acid)-F—N—Me—V} Acetate [Test Compound 12]	Active	57%
Cyclo-{R-G-D-D-F—NMe—V}•TFA [Test Compound 13]	Active	75%
R-A-Cys (acid)•TFA [Test Compound 3]	Active	60%
R-D-G•TFA [Test Compound 18]	Active	44%
R-G-Cys(acid)-G-G-GD-G•TFA [Test Compound 7]	Active	62%

From US20190062371A1, “PEPTIDE COMPOSITIONS AND RELATED METHODS” (Allegro Pharmaceuticals, Inc., priority 2017, published 2019)
